Laboratory results: patent publication US20210332014A1, “CABOZANTINIB MALATE CRYSTAL FORM, PREPARATION METHOD AND USE THEREOF” (Crystal Pharmaceutical (Suzhou) Co., Ltd., priority 2018, published 2021)

Columns and labels:
Type in all cases: physicochemical
[1] = Dynamic Vapor Sorption (DVS); conditions: humidity lower than 30% RH, 25° C.
Protocol: Dynamic Vapor Sorption (DVS) is measured via an SMS (Surface Measurement Systems Ltd.) intrinsic DVS instrument. […] Typical Parameters for DVS test are as follows: • Temperature: 25° C. • Gas and flow rate: N2, 200 mL/min • dm/dt=0.002 • RH range: 0% RH to 95% RH

[2] = Particle size distribution (laser particle size analyzer); conditions: wet mode, Isopar G
Protocol: The particle size distribution data in the present disclosure were acquired by an [MUT] laser particle size analyzer of Microtrac. Microtrac [MUT] is equipped with an SDC (Sample Delivery Controller). The test is carried out in wet mode, and the dispersion medium is Isopar G. The parameters are as follows:

[3] = Kinetic solubility study (saturated solutions, HPLC); conditions: for Solubility in H2O / Solubility in FaSSIF / Solubility in FeSSIF: 20 mg in 1.5 mL
Protocol: The HPLC method parameters for solubility test in the present disclosure are as follows: • 1. Column: Waters XBridge C18 150×4.6mm, 5 μm • 2. Mobile Phase: A: 0.1% TFA in H2O • B: 0.1% TFA in Acetonitrile • Gradient:
• 3. Flow rate: 1 mL/min • 4. Injection Volume: 5 μL • 5. Detection wavelength: 250 nm • 6. Column Temperature: 40° C. • 7. Diluent: Acetonitrile/H2O (9:1, v/v)
• Simulated gastrointestinal fluids such as FaSSIF (Fasted state simulated intestinal fluids) and FeSSIF (Fed state simulated intestinal fluids) are biorelevant media. […] After equilibrated for 1 h and 4 h, concentrations (mg/mL) of the saturated solutions were measured by HPLC.
• 20 mg of Form CSIII and 20 mg of crystalline forms in the prior arts were suspended into 1.5 mL of SGF, 1.5 mL of FaSSIF, 1.5 mL of FeSSIF and 1.5 mL of water to get saturated solutions. After equilibrated for 1 h and 4 h, concentrations (mg/mL) of the saturated solutions were measured by HPLC.

[4] = Compressibility (tensile strength of manually compressed tablet); conditions: for Average tensile strength: 80 mg, φ6 mm round tooling, 10 KN, average of three tests
Protocol: • Manual tablet press was used for compression. 80 mg of Form CSIII and crystalline forms in the prior art were weighed and added into the dies of a φ6 mm round tooling, respectively, compressed at 10 KN manually, then stored at room temperature for 24 h until complete elastic recovery. Hardness (H) was tested with an intelligent tablet hardness tester. Diameter (D) and thickness (L) were tested with caliper. Tensile strength of the powder was calculated with the following formula: T=2H/πDL.

[5] = Adhesiveness (material sticking to the punch); conditions: for Average amount sticking to the punch / Maximum amount sticking to the punch: 30 mg, φ8 mm round tooling, 10 KN held 30 s
Protocol: • 30 mg of Form CSIII and crystalline forms in the prior art were weighed separately and then added into the dies of φ8 mm round tooling, compressed at 10 KN and held for 30 s. The punch was weighed and amount of material sticking to the punch was calculated. The compression was repeated twice and the cumulative amount, maximum amount and average amount of material sticking to the punch during the compression were recorded.

[6] = Flowability (compressibility index / Carr index); conditions: for Compressibility index: c=(ρf−ρ0)/ρf
Protocol: Compressibility index test method is as follows: a certain amount of powder was added into a measuring cylinder and bulk volume was recorded. Then the powder was tapped to make it in the tightest state and the tapped volume was recorded. The bulk density (ρ0), tapped density (ρf) were calculated and compressibility index was calculated according to c=(ρf−ρ0)/ρf. • Criteria of flowability according to United States Pharmacopoeia USP1174, which is shown in Table 7.

Row | SMILES | Solubility compared with prior art [3] | Solubility in H2O ([3]; water, equilibrated 1 h) | Solubility in H2O ([3]; water, equilibrated 4 h) | Average tensile strength [4] | Average amount sticking to the punch [5] | Maximum amount sticking to the punch [5] | Solubility in FaSSIF ([3]; equilibrated 1 h) | Solubility in FaSSIF ([3]; equilibrated 4 h) | Solubility in FeSSIF ([3]; equilibrated 1 h) | Solubility in FeSSIF ([3]; equilibrated 4 h) | Bulk density [6] | Tapped density [6] | Compressibility index [6] | further results
1 | COc1cc2nccc(Oc3ccc(NC(=O)C4(C(=O)Nc5ccc(F)cc5)CC4)cc3)c2cc1OC.O=C(O)C[C@H](O)C(=O)O [Form M2, N-(4-(6,7-dimethoxyquinolin-4-yloxy)phenyl)-N′-(4-fluorophenyl) cyclopropane-1,1-dicarboxamide (S)-malate] |  |  |  |  |  |  |  |  |  |  |  |  |  | Behaviour under humidity (DVS) [1]: dehydrated rapidly; D90 particle size [2]: 244.3 μm
2 | COc1cc2nccc(Oc3ccc(NC(=O)C4(C(=O)Nc5ccc(F)cc5)CC4)cc3)c2cc1OC.O=C(O)C[C@H](O)C(=O)O [Form CSI, N-(4-(6,7-dimethoxyquinolin-4-yloxy)phenyl)-N′-(4-fluorophenyl) cyclopropane-1,1-dicarboxamide (S)-malate] | higher than that of prior art | 350 µg/mL | 360 µg/mL |  |  |  |  |  |  |  |  |  |  | Solubility in water relative to Form M4 ([3]; water): over five times more; Solubility in water relative to Form N-2 ([3]; water): twice
3 | COc1cc2nccc(Oc3ccc(NC(=O)C4(C(=O)Nc5ccc(F)cc5)CC4)cc3)c2cc1OC.O=C(O)C[C@H](O)C(=O)O [Form N-2, N-(4-(6,7-dimethoxyquinolin-4-yloxy)phenyl)-N′-(4-fluorophenyl) cyclopropane-1,1-dicarboxamide (S)-malate] |  | 150 µg/mL | 150 µg/mL | 1.02 MPa | 0.20 mg | 0.26 mg | 11 µg/mL | 7.9 µg/mL | 47 µg/mL | 43 µg/mL | 0.194 g/mL | 0.256 g/mL | 24% | 

The next lines start with results.

Row | Solubility compared with prior art [3] | Solubility in H2O ([3]; water, equilibrated 1 h) | Solubility in H2O ([3]; water, equilibrated 4 h) | Average tensile strength [4] | Average amount sticking to the punch [5] | Maximum amount sticking to the punch [5] | Solubility in FaSSIF ([3]; equilibrated 1 h) | Solubility in FaSSIF ([3]; equilibrated 4 h) | Solubility in FeSSIF ([3]; equilibrated 1 h) | Solubility in FeSSIF ([3]; equilibrated 4 h) | Bulk density [6] | Tapped density [6] | Compressibility index [6] | SMILES | further results
4 | higher than that of prior art | 300 µg/mL | 240 µg/mL | 1.56 MPa | 0.045 mg | 0.06 mg | 25 µg/mL | 8.3 µg/mL | 130 µg/mL | 120 µg/mL | 0.319 g/mL | 0.376 g/mL | 15% | COc1cc2nccc(Oc3ccc(NC(=O)C4(C(=O)Nc5ccc(F)cc5)CC4)cc3)c2cc1OC.O=C(O)C[C@H](O)C(=O)O [Form CSIII, N-(4-(6,7-dimethoxyquinolin-4-yloxy)phenyl)-N′-(4-fluorophenyl) cyclopropane-1,1-dicarboxamide (S)-malate] | Compressibility compared with prior art [4]: better compressibility; Adhesiveness compared with prior art form [5]: superior to the prior art form; Maximum amount sticking to the punch of the prior art relative to Form CSIII [5]: over twice; Solubility relative to Form N-2 and Form M4 ([3]; FeSSIF and water): twice; Flowability compared with prior art [6]: remarkably superior to that of prior art
5 |  | 72 µg/mL | 2.8 µg/mL | 1.23 MPa | 0.08 mg | 0.11 mg | 12 µg/mL | 1.9 µg/mL | 62 µg/mL | 65 µg/mL | 0.251 g/mL | 0.387 g/mL | 35% | COc1cc2nccc(Oc3ccc(NC(=O)C4(C(=O)Nc5ccc(F)cc5)CC4)cc3)c2cc1OC.O=C(O)C[C@H](O)C(=O)O [Form M4, N-(4-(6,7-dimethoxyquinolin-4-yloxy)phenyl)-N′-(4-fluorophenyl) cyclopropane-1,1-dicarboxamide (S)-malate] | 
